In one assay the target is T1, recombinant ATX (Homo sapiens, UniProt Q13822).
T1 construct: purchased SinoBiological Inc (main data); R&D (additional Km values)
In words: Amplex Red activity assay, LPC hydrolysis by recombinant ATX (Echelon). As to conditions: for % Inhibition at 10 μΜ: BrP-LPA 10 μΜ; for Ki: Cheng-Prusoff from IC50; for IC50: [S] 50 μΜ, Echelon ATX 2 nM, mean±std. Type of assay: biochemical. The protocol:
BrP-LPA inhibition was also tested with the more sensitive reagent Amplex Red based on the Amplex™ Red PLD assay kit (Molecular Probes, Interchim, Montluçon, France) originally designed for the measurement of the PLD activity, [49]. All reactions were performed with purified ATX (2 nM) from Echelon at 37°C. The ability of ATX to cleave LPC was detected using a coupled assay that monitors the release of choline using Amplex Red (10 μΜ), choline oxidase (0.2 Units/ml) and horseradish peroxidise (2 Units/ml) The rate of fluorescence increase was measured in a fluorescence plate reader (Tecan Infinite 200 microplate reader from Tecan Trading AG, Switzerland) for up to 80 minutes; the fluorescence increase was linear during that time-frame for all cases. Rates were normalized to control reactions that contained all reaction components except for the test compound.
The biochemistry of lyso-PLD was assessed by following the kinetics data using a wide panel of different ATX substrates [FS-3, different LPC species (14:0, 16:0, 18:0, 18:1)], three different recombinant ATX proteins (R&D, Sino-Biological and Echelon) and three different ATX activity assays (FS-3, TOOS, Amplex Red). The ATX activity was measured at different substrate concentrations (typically from 1-1000 μM) in order to examine whether ATX follows Michaelis-Menten kinetics. The Michaelis constant (Km) was obtained by fitting the substrate dependence of V (ATX activity) to a rectangular hyperbola using the non-linear regression analysis of the statistical software package Prism 4.0 (GraphPad Software, Inc.). Km and Vmax were evaluated from the rectangular hyperbola curve with the use of GraphPad software.
For in vitro inhibition measurements, BrP-LPA was dissolved in water as a stock solution (4 mM) and appropriate dilutions were made in water. The inhibition of ATX by BrP-LPA was measured employing 2 nM recombinant ATX, 50 μΜ LPC (14:0, 16:0, 18:0) and 0.01 to 100 μmol/L of BrP-LPA (final concentrations). The in vitro inhibition of ATX by BrP-LPA was evaluated with three different assays (FS-3, Amplex Red, and TOOS). […] BrP-LPA was also tested for its ability to inhibit mouse plasma ATX activity. Diluted mouse plasma was used as the source of ATX and the analysis of inhibition was made with TOOS as the in vitro inhibition assay.
The inhibition model (competitive, noncompetitive, or mixed type inhibition) was evaluated by graphical analysis with Lineweaver–Burk double reciprocal plots (1/[velocity] versus 1/[substrate]) and Cornish-Bowden plot ([substrate]/[velocity] versus [Inhibitor]). These plots were generated by the measurement of ATX activity in the presence of different BrP-LPA concentrations (0–10 μΜ) and increased amounts of 16:0 LPC (100, 200, 400 μΜ). The inhibition constants (Ki) and IC50 values were determined using the mean values obtained from two independent experiments. The relative remaining ATX activity or LPA levels in the presence of the BrP-LPA was expressed as a percentage of the corresponding control value (ATX activity, LPA levels without inhibitor). The IC50 value was determined graphically by plotting the log concentration of BrP-LPA versus relative remaining ATX activity or LPA levels of each test sample using the sigmoid dose–response fitting method (Prism® software). The IC50 (concentration of BrP-LPA sufficient to inhibit ATX activity or diminish LPA levels by 50%) was calculated by the equation f = y0+a/(1+exp(-(x-x0)/b)) given by SigmaPlot 11.0 (Systat Software, Inc., San Jose, CA, USA).
Ki was calculated using the equation of Cheng and Prusoff: Ki = IC50/1+[S]/Km, where Ki is the binding affinity of the inhibitor, IC50 is the functional strength of the inhibitor, [S] is substrate concentration and Km is the concentration of substrate at which enzyme activity is half maximal. Whereas the IC50 value for a compound may vary between experiments depending on experimental conditions, Ki is an absolute value. […]

The target of assay [1] is T2, endogenous ATX/lysoPLD activity in whole blood (Mus musculus, UniProt Q9R1E6).
T2 construct: from tissue; host or cells: mouse plasma / whole blood
In words: Inhibition of ATX activity in whole blood ex vivo (TOOS assay). It is filed as biochemical. The note with it: 2 h 37°C, TOOS with 1 mM LPC. The protocol: ATX/LysoPLD activity was assessed based on the amount of choline released from LPC with the use of TOOS (N-ethyl-N-(2-hydoroxy-3-sulfopropyl)-3-methylaniline) reagent. In this assay ATX-mediated LPC-liberated choline is oxidised by choline oxidase to betaine and hydrogen peroxide (H2O2). The latter in the presence of horseradish peroxidase reacts with TOOS and 4-aminoantipyrene (4-AAP) to form a pink quinoneimine dye measured at 555 nm. […]
The liberated choline was detected by adding 100 μl of a color mix containing 4-AAP and TOOS (0.3 mM), horseradish peroxidase (5.3 UnitmL^−1) and choline oxidase (2 UnitmL^−1). Absorbance was measured at 555 nm and data were analyzed using the statistical software package Prism 4.0 (Graphpad Software Inc, La Jolla, CA, USA). For each sample and control the absorbance was plotted against time and the slope (da/min) for the linear (steady-state) portion of each reaction profile was calculated. Absorbance units were converted to nmol of choline/min/ml by comparison with a choline standard curve or by use of the extinction coefficient for the quinoneimine dye according to the following equation: [drawing 1] […]
Venous blood from wild type mouse was collected in EDTA tubes. […] IC50 values using ATX activity and LPA levels were determined graphically as described above.

For assay [2], the system named is orthotopic breast cancer xenograft model. More on the design: method as in PMID 19509223. The note with it: in vivo; cited from earlier work.

Molecules are shown by their SMILES.

Consider 1 molecule from publication PMC3726599, “A Metabolically-Stabilized Phosphonate Analog of Lysophosphatidic Acid Attenuates Collagen-Induced Arthritis” (PLoS ONE, 2013).

Consider `CCCCCCCCCCCCCCCC(=O)OC[C@@H](O)CC(Br)P(=O)(O)O` (stereo partly drawn) [BrP-LPA, 1-bromo-3(S)-hydroxy-4-(palmitoyloxy)butyl-phosphonate], for which the “% Inhibition at 10 μΜ” value on recombinant ATX (14:0 LPC 50 μΜ) and at recombinant ATX (18:0 LPC 50 μΜ) was 75% each time. Moreover, the values for the Ki on recombinant ATX (14:0 LPC) and at recombinant ATX (18:0 LPC) were 1000 ± 400 nM and 800 ± 200 nM, respectively. The IC50 turned out to be 1600 ± 100 nM at recombinant ATX (substrate 14:0 LPC), 1100 ± 100 nM on recombinant ATX (substrate 18:0 LPC) and 600 nM in assay [1]. Also, in assay [2], the tumor regression entry is listed as “cause tumor regression in vivo”.

Usually % Inhibition stands for the change of the read-out against control, counted positive when it falls. Usually Ki stands for the dissociation constant of the complex between target and ligand, obtained from inhibition or displacement. By IC50 is commonly meant the midpoint of a concentration-inhibition curve.
